Test results as given in US20060040957A1, “BICYCLIC PYRIMIDINE MATRIX METALLOPROTEINASE INHIBITORS” (priority 2001, published 2006).
Structures can show the parent of a compound that is named as a salt.

Experiments:
Format in all cases: biochemical
[1] = target: MMP-14CD (catalytic domain of MMP-14) (Homo sapiens, UniProt P50281); assay: Thiopeptolide substrate hydrolysis assay, MMP-14CD; details: HEPES pH 7.0, 22° C., read-out: IC50 (μM) Versus Certain MMPs: MMP-14 CD
Description: (§1) The invention compounds of Formula I have been evaluated in standard assays for their ability to inhibit the catalytic activity of various MMP enzymes.
(§2) Thiopeptolide substrates show virtually no decomposition or hydrolysis at or below neutral pH in the absence of a matrix metalloproteinase enzyme.
(§3) Several representative compounds have been evaluated for their ability to inhibit various matrix metalloproteinase enzymes.

[2] = target: T1, MMP-2FL (full length Gelatinase A) (Homo sapiens, UniProt P08253); assay: Thiopeptolide substrate hydrolysis assay, MMP-2FL; details: HEPES pH 7.0, 22° C., read-out: IC50 (μM) Versus Certain MMPs: MMP-02 FL
T1 sequence (P08253 110-660): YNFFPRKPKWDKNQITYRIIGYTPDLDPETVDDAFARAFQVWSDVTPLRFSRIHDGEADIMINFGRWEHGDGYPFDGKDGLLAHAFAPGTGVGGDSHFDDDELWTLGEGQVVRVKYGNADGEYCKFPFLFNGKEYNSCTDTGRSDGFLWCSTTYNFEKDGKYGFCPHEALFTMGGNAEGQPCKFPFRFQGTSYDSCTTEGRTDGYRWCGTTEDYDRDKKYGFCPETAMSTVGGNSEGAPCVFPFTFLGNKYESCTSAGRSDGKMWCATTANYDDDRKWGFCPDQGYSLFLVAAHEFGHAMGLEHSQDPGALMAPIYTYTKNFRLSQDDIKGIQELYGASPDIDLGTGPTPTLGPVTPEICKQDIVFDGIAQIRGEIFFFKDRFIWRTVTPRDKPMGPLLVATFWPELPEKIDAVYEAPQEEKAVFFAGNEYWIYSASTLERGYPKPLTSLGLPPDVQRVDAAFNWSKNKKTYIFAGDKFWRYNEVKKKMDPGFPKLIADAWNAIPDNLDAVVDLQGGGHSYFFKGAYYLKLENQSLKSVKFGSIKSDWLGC
Description: as §1, §2, §3

[3] = target: MMP-9FL (full length Gelatinase B) (Homo sapiens, UniProt P14780); assay: Thiopeptolide substrate hydrolysis assay, MMP-9FL; details: HEPES pH 7.0, 22° C., read-out: IC50 (μM) Versus Certain MMPs: MMP-09 FL
Description: as §1, §2, §3

[4] = target: T2, MMP-7FL (full length matrilysin) (Homo sapiens, UniProt P09237); assay: Thiopeptolide substrate hydrolysis assay, MMP-7FL; details: HEPES pH 7.0, 22° C., read-out: IC50 (μM) Versus Certain MMPs: MMP-07 FL
T2 sequence (P09237 95-267): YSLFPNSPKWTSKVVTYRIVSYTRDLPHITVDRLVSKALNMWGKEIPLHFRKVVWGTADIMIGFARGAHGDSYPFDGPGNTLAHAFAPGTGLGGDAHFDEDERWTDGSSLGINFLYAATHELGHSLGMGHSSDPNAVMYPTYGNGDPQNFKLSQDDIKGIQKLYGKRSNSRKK
Description: as §1, §2, §3

MMP-9FL (full length Gelatinase B), sequence (P14780 94-707, species assumed): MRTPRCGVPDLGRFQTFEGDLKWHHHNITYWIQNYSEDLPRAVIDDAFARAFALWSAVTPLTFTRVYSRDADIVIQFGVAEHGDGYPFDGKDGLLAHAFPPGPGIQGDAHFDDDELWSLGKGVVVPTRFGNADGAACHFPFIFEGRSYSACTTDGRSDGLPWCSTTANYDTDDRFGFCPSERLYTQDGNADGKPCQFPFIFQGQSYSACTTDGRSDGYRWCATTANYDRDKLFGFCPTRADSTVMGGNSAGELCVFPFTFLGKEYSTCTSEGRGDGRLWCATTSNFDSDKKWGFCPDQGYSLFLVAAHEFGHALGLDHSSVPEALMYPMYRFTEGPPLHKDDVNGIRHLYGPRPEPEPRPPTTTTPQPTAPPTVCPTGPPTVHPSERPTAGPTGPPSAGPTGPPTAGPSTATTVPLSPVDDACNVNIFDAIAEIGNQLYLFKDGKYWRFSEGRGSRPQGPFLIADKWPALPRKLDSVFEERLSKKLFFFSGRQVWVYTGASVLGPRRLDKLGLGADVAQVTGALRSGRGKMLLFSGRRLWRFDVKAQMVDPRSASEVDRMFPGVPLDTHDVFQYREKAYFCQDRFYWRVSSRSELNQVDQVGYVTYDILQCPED

Row | IC50 [1] | IC50 [2] | IC50 [3] | IC50 [4] | Compound
1 | > 30 µM | > 100 µM | > 30 µM | 21 µM | Cc1c(=O)n(Cc2ccccc2)c(=O)n2cc(C(=O)NCc3cccc(F)c3)sc12 [Example 10, 6-Benzyl-8-methyl-5,7-dioxo-6,7-dihydro-5H-thiazolo[3,2-c]pyrimidine-2-carboxylic acid 3-fluoro-benzylamide]
2 | > 100 µM | > 30 µM | > 30 µM | 71 µM | Cc1cccc(CNC(=O)c2cn3c(=O)n(Cc4ccccc4)c(=O)c(C)c3s2)c1 [Example 28, 6-Benzyl-8-methyl-5,7-dioxo-6,7-dihydro-5H-thiazolo[3,2-c]pyrimidine-2-carboxylic acid 3-methyl-benzylamide]
3 | > 30 µM | > 30 µM | > 30 µM | > 30 µM | Cc1c(=O)n(Cc2ccccc2)c(=O)n2cc(C(=O)NCc3ccc(F)cc3)sc12 [Example 30, 6-Benzyl-8-methyl-5,7-dioxo-6,7-dihydro-5H-thiazolo[3,2-c]pyrimidine-2-carboxylic acid 4-fluoro-benzylamide]
4 | > 100 µM | > 100 µM | > 30 µM | > 100 µM | Cc1c(=O)n(Cc2ccccc2)c(=O)n2cc(C(=O)NCc3ccncc3)sc12 [Example 36, 6-Benzyl-8-methyl-5,7-dioxo-6,7-dihydro-5H-thiazolo[3,2-c]pyrimidine-2-carboxylic acid(pyridin-4-ylmethyl)-amide hydrochloride]
5 | > 100 µM | > 30 µM | > 30 µM | > 30 µM | Cc1c(=O)n(Cc2ccccc2)c(=O)n2cc(C(=O)NCc3ccc(F)c(F)c3)sc12 [Example 43, 6-Benzyl-8-methyl-5,7-dioxo-6,7-dihydro-5H-thiazolo[3,2-c]pyrimidine-2-carboxylic acid 3,4-difluoro-benzylamide]
6 | > 100 µM | > 100 µM | > 30 µM | > 100 µM | Cc1c(=O)n(Cc2ccccc2)c(=O)n2cc(C(=O)NCc3cccnc3)sc12 [Example 44, 6-benzyl-8-methyl-5,7-dioxo-6,7-dihydro-5H-thiazolo[3,2-c]pyrimidine-2-carboxylic acid(pyridin-3-ylmethyl)-amide]
7 | > 100 µM | > 100 µM | > 100 µM | > 30 µM | COc1ccc(CNC(=O)c2cn3c(=O)n(Cc4ccccc4)c(=O)c(C)c3s2)cc1F [Example 46, 6-Benzyl-8-methyl-5,7-dioxo-6,7-dihydro-5H-thiazolo[3,2-c]pyrimidine-2-carboxylic acid 3-fluoro-4-methoxy-benzylamide]
8 | > 100 µM | > 30 µM | > 100 µM | 28 µM | Cc1ccc(CNC(=O)c2cn3c(=O)n(Cc4ccccc4)c(=O)c(C)c3s2)cc1 [Example 48, 6-Benzyl-8-methyl-5,7-dioxo-6,7-dihydro-5H-thiazolo[3,2-c]pyrimidine-2-carboxylic acid 4-methyl-benzylamide]
9 | > 100 µM | > 30 µM | > 100 µM | > 100 µM | Cc1c(=O)n(Cc2ccccc2)c(=O)n2cc(C(=O)NCc3ccc(C(F)(F)F)cc3)sc12 [Example 49, 6-Benzyl-8-methyl-5,7-dioxo-6,7-dihydro-5H-thiazolo[3,2-c]pyrimidine-2-carboxylic acid 4-trifluoromethyl-benzylamide]
10 | > 100 µM | > 30 µM | > 100 µM | 31 µM | Cc1c(=O)n(Cc2ccccc2)c(=O)n2cc(C(=O)NCc3ccc(Cl)cc3)sc12 [Example 50, 6-Benzyl-8-methyl-5,7-dioxo-6,7-dihydro-5H-thiazolo[3,2-c]pyrimidine-2-carboxylic acid 4-chloro-benzylamide]

Continued, compound first:

Row | Compound | IC50 [1] | IC50 [2] | IC50 [3] | IC50 [4]
11 | O=C(NCc1ccncc1)c1cn2c(=O)n(Cc3ccccc3)c(=O)cc2s1 [Example 9, 6-Benzyl-5,7-dioxo-6,7-dihydro-5H-thiazolo[3,2-c]pyrimidine-2-carboxylic acid(pyridin-4-ylmethyl)-amide hydrochloride] | > 100 µM | > 100 µM | > 100 µM | > 100 µM
12 | O=C(NCc1ccccc1)c1cn2c(=O)n(Cc3ccncc3)c(=O)cc2s1 [Example 15, 6-(4-Pyridylmethyl)-5,7-dioxo-6,7-dihydro-5H-thiazolo[3,2-c]pyrimidine-2-carboxylic acid benzylamide hydrochloride] | > 100 µM | > 100 µM | > 100 µM | > 100 µM
13 | O=C(NCc1ccncc1)C1Cn2c(cc(=O)n(Cc3ccccc3)c2=O)S1 (stereo not shown) [Example 22, 6-Benzyl-5,7-dioxo-2,3,6,7-tetrahydro-5H-thiazolo[3,2-c]pyrimidine-2-carboxylic acid(pyridin-4-ylmethyl)-amide] | > 100 µM | > 100 µM | > 100 µM | > 100 µM
14 | O=C(OCc1ccccc1)C1C[S+]([O-])c2cc(=O)n(Cc3ccccc3)c(=O)n21 (stereo not shown) [Example 23, 6-Benzyl-1,5,7-trioxo-1,2,3,5,6,7-hexahydro-114-thiazolo[3,2-c]pyrimidine-3-carboxylic acid benzyl ester] | > 100 µM | > 100 µM | > 100 µM | > 100 µM
15 | COc1ccc(CNC(=O)c2cn3c(=O)n(Cc4ccccc4)c(=O)c(C=O)c3s2)cc1 [Example 32, 6-Benzyl-8-formyl-5,7-dioxo-6,7-dihydro-5H-thiazolo[3,2-c]pyrimidine-2-carboxylic acid 4-methoxy-benzylamide] | > 30 µM | > 100 µM | > 100 µM | > 30 µM
16 | Cc1c(=O)n(Cc2ccccc2)c(=O)n2cc(C(=O)NCc3ccc(OC(F)(F)F)cc3)sc12 [Example 51, 6-Benzyl-8-methyl-5,7-dioxo-6,7-dihydro-5H-thiazolo[3,2-c]pyrimidine-2-carboxylic acid 4-trifluoromethoxy-benzylamide] | > 100 µM | > 30 µM | > 100 µM | > 30 µM
17 | COc1ccc(CNC(=O)c2cn3c(=O)n(Cc4ccc(C(=O)OCCN(C)C)cc4)c(=O)c(C)c3s2)cc1 [Example 57, 4-[2-(4-Methoxy-benzylcarbamoyl)-8-methyl-5,7-dioxo-7H-thiazolo[3,2c]pyrimidin-6-ylmethyl]-benzoic acid 2-dimethylamine-ethyl ester hydrochloride] | > 30 µM | > 30 µM | > 30 µM | > 30 µM
18 | Cc1c(=O)n(Cc2ccc(C(=O)OCCN(C)C)cc2)c(=O)n2cc(C(=O)NCc3ccc(F)cc3)sc12 [Example 60, 4-[2-(4-Fluoro-benzylcarbamoyl)-8-methyl-5,7-dioxo-7H-thiazolo[3,2-c]pyrimidin-6-ylmethyl]-benzoic acid 2-dimethylamino-ethyl ester] | > 100 µM | > 100 µM | > 100 µM | > 100 µM
19 | Cc1c(=O)n(Cc2ccc(C(=O)OCCN(C)C)cc2)c(=O)n2cc(C(=O)NCc3ccncc3)sc12 [Example 63, 4-{8-Methyl-5,7-dioxo-2-[(pyridin-4-ylmethyl)-carbamoyl]-7H-thiazolo[3,2-c]pyrimidin-6-ylmethyl}-benzoic acid 2-dimethylamino-ethyl ester dihydrochloride] | > 100 µM | > 100 µM | > 100 µM | > 100 µM
